Results taken from PubChem BioAssay (NCI).
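Tested at 5 concentrations; 48 h exposure; 96-well plates; endpoints linearly interpolated, else capped at highest concentration. The concentration for full growth arrest is given as TGI.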

Key:
Experiment in all cases: inhibition of tumour cell growth, NCI panel, 48 h
[1] = system: ACHN renal
[2] = system: BT-549 breast
[3] = system: HS 578T breast
[4] = system: HT29 colon
[5] = system: KM12 colon
[6] = system: OVCAR-5 ovarian
[7] = system: SF-295 CNS
[8] = system: SK-MEL-2 melanoma
[9] = system: SK-MEL-5 melanoma
[10] = system: SNB-75 CNS
[11] = system: U251 CNS
[12] = system: DMS 273 small cell lung
[13] = system: SNB-78 CNS

SMILES	TGI [1] [µM]	TGI [2] [µM]	TGI [3] [µM]	TGI [4] [µM]	TGI [5] [µM]	TGI [6] [µM]	TGI [7] [µM]	TGI [8] [µM]	TGI [9] [µM]	TGI [10] [µM]	TGI [11] [µM]	TGI [12] [µM]	TGI [13] [µM]
COC(=O)[C@@H](NC(=O)N(Cc1ccccc1)C[C@H](CC(C)C)NC(=O)[C@@H](NC(=O)OC(C)(C)C)C(C)C)C(C)C	> 100	> 100	> 100	> 100	> 100	> 100	> 100	> 100	> 100	> 100	> 100		
CC(=O)OCC1OC(n2c(C)c(N=Nc3ccc(Cl)cc3)c(C)c(C#N)c2=S)C(OC(C)=O)C(OC(C)=O)C1OC(C)=O (centres undefined)	> 100	52.3	68	> 100	> 100	> 100	76.5	92.1	> 100	49.1	98		
CC(NC(=O)c1c(O)[nH]c(=S)[nH]c1=O)c1ccc([N+](=O)[O-])cc1 (centres undefined)	> 100	> 100	> 100	> 100	> 100	> 100	> 100	> 100	> 100	73.3	> 100		
CC(=O)c1c(N=[N+]=[N-])c2cccc3c2n(c1=O)CCC3	54.2	39.8	78.3	35.5	28.7	34.5	60	75.2	28.5	59.3	31.6		
NC1(CCNC(=O)c2ccccc2)CCN(C(=O)c2ccccc2)CC1	> 100	> 100	> 100	> 100	> 100	> 100	> 100	> 100	> 100	> 100	> 100		
Cn1nnnc1SC(F)(F)c1nc2ccccc2o1	> 100	> 100	> 100	> 100	> 100	> 100	> 100	> 100	> 100	> 100	> 100		
CCCCCCCCCCCC(=O)OC[C@@H](C[As](=O)(O)O)OC(=O)CCCCCCCCCCC	10.4	9.91	29.4	25.3	17.1	30.8	27.1	7.48	3.91	16.6	4.42	12.3	
COc1ccc(C2c3cc4c(cc3OC(N3CCOCC3)C2C)OCO4)cc1 (centres undefined)	> 100	> 100	63	> 67.6	> 100	> 87.5	67.5	> 71	72.4	> 100	68.1		
CC(=O)O[C@]12CCCCCC1C1(O)C(O)CCCCC12 (some centres undefined)	> 100			> 100	> 100		> 100	> 100	> 100	> 100	> 100	> 100	> 100
